Measurements reported in patent publication US10081635B2, “Substituted N-(pyrrolidine-3-yl)-7H-pyrrolo[2,3-D]pyrimidine-4-amine as janus kinase inhibitor” (YANG JI CHEMICAL CO., LTD., priority 2014, dated 2018).

Experiments:
Type in all cases: biochemical
Human JAK3 = Human JAK3 (Homo sapiens (Human), UniProt P52333); test: In vitro kinase inhibition test, JAK3 (33P-ATP filter scintillation); conditions: compound at 1 uM; read-out: JAK3 kinase-phosphorylation inhibitory level (% inhibition)
Procedure: (§1) 1. In Vitro Kinase Inhibition Test
(§2) Kinases used were human-derived JAK1, JAK2, JAK3, and TYK2 (Millipore, Germany). Each of these kinases was diluted with a suitable buffer solution as described below, and then mixed with reagents.
(§3) 3-morpholinopropane-1-sulfonic acid (MOPS) and EDTA were dissolved in distilled water at a concentration of 20 mM and 1 mM, respectively, and 100 uL of β-mercaptoethanol, 10 uL of Brij-35™, 5 mL of glycerol, and 100 mg of bovine serum albumin (BSA), each per 100 mL of the solution, were added to the solution, thereby preparing a JAK2, JAK3, and TYK2 dilution buffer solution.
(§4) Each compound was dissolved in a 100% DMSO solution at a 50 uM concentration. This solution was reacted with reagents in wells on a 96-well plate to reach a final concentration of 1 uM. Detailed experimental methods for each kinase are described below.
(§5) After reaction for about 40 minutes at room temperature, the reaction was stopped by adding 5 uL of a 3% (v/v) phosphoric acid solution.
(§6) In Tables 5 and 6, the numbers in the “Example” column, which are identification numbers of the examples, indicate the compounds synthesized in the corresponding examples, the values in the “JAK1”, “JAK2”, “JAK3”, and “TYK2” columns represent kinase-phosphorylation inhibitory levels as a percentage (%) of the compounds synthesized in the corresponding examples at a 1 uM concentration. In Tables 5 and 6, negative values substantially indicate no inhibitory effect.
(§7) The inhibitory levels (% inhibition) represent a percentage of reduction in phosphorylation activity in each test group with respect to the phosphorylation activity of a corresponding kinase in a negative control group lacking any of the compounds synthesized in the examples. % inhibition=[(Scintillation value of Test compound non-treatment group−Scintillation value of Test compound treatment group)/(Scintillation value of Test compound non-treatment group)]×100

Human JAK1 = Human JAK1 (Homo sapiens (Human), UniProt P23458); test: In vitro kinase inhibition test, JAK1 (33P-ATP filter scintillation); conditions: compound at 1 uM; read-out: JAK1 kinase-phosphorylation inhibitory level (% inhibition)
Sequence of Human JAK1 (P23458 whole entry): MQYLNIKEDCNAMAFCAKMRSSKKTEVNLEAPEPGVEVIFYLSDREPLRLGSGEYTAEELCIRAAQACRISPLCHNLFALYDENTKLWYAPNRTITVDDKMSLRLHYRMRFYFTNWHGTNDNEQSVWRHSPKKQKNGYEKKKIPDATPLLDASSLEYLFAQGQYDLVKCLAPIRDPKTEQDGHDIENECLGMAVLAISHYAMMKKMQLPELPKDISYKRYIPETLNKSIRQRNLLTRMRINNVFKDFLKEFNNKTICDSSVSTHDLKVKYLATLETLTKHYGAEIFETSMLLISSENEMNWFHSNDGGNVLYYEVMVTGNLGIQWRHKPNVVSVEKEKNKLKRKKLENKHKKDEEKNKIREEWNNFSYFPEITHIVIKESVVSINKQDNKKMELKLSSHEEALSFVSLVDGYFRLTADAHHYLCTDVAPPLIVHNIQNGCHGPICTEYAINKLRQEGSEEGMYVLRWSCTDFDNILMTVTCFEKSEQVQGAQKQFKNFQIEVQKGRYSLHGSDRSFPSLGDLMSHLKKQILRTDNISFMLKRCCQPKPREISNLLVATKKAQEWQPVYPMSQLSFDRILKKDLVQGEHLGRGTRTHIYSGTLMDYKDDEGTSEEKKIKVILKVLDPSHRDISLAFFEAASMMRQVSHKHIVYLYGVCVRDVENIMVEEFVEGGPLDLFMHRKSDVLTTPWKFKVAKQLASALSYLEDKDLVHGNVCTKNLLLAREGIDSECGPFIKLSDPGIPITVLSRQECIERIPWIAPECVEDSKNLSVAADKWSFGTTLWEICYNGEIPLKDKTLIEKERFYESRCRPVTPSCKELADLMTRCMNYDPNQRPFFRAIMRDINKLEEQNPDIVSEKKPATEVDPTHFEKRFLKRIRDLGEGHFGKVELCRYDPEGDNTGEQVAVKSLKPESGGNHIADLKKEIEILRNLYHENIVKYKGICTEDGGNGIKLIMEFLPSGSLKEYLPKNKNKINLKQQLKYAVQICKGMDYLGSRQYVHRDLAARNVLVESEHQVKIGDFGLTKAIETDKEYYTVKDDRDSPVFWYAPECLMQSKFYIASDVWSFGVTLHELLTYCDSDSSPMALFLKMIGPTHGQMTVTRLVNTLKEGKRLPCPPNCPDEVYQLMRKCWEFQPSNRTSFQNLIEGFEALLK
Procedure: as §1, §2
Tris(hydroxymethyl)aminomethane (TRIS) and ethylenediaminetetraacetic acid (EDTA) were dissolved in distilled water at a concentration of 20 mM and 0.2 mM, respectively, and 100 uL of β-mercaptoethanol, 10 uL of Brij-35™, and 5 mL of glycerol, each per 100 mL of the solution, were added to the solution, thereby preparing a JAK1 dilution buffer solution.
as §4
After reaction for about 40 minutes at room temperature, the reaction was stopped by adding 5 uL of a 3% (v/v) phosphoric acid solution. […] The methanol drying is a drying process using an azeotropic effect, wherein methanol is added into an aqueous solution for drying.
as §6, §7

Human TYK2 = Human TYK2 (Homo sapiens (Human), UniProt P29597); test: In vitro kinase inhibition test, TYK2 (33P-ATP filter scintillation); conditions: compound at 1 uM; read-out: TYK2 kinase-phosphorylation inhibitory level (% inhibition)
Sequence of Human TYK2 (P29597 whole entry): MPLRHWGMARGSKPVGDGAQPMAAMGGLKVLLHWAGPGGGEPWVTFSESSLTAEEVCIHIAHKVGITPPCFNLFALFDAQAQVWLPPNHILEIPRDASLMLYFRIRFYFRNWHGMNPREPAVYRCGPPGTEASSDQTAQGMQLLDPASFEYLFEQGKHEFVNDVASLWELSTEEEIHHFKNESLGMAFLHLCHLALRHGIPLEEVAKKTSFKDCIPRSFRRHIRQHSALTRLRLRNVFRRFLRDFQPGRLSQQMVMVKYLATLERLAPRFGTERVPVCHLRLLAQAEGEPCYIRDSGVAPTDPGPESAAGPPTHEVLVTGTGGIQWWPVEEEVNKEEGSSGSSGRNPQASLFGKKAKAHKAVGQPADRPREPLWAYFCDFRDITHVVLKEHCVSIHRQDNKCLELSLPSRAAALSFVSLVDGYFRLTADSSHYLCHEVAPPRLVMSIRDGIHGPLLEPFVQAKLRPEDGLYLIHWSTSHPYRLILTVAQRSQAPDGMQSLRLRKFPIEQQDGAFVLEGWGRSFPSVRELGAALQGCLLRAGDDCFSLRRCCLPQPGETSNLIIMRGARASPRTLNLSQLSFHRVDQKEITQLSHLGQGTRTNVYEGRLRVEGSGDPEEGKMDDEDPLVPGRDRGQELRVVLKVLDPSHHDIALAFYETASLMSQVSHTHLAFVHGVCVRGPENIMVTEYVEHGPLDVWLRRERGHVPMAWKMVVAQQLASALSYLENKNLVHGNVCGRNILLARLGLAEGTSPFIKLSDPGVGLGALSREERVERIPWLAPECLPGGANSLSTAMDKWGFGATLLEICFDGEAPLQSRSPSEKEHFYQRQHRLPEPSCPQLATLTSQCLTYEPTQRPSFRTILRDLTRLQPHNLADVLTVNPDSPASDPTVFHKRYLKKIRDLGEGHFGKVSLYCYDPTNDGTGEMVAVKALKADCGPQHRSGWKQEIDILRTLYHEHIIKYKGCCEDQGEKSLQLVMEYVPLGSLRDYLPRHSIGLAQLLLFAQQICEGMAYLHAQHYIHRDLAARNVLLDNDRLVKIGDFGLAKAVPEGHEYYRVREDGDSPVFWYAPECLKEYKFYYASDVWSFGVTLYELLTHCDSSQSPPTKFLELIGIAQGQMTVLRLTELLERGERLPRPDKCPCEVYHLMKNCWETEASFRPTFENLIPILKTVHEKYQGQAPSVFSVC
Procedure: as §1, §2, §3, §4, §5, §6, §7

Human JAK2 = Human JAK2 (Homo sapiens (Human), UniProt O60674); test: In vitro kinase inhibition test, JAK2 (33P-ATP filter scintillation); conditions: compound at 1 uM; read-out: JAK2 kinase-phosphorylation inhibitory level (% inhibition)
Sequence of Human JAK2 (O60674 whole entry): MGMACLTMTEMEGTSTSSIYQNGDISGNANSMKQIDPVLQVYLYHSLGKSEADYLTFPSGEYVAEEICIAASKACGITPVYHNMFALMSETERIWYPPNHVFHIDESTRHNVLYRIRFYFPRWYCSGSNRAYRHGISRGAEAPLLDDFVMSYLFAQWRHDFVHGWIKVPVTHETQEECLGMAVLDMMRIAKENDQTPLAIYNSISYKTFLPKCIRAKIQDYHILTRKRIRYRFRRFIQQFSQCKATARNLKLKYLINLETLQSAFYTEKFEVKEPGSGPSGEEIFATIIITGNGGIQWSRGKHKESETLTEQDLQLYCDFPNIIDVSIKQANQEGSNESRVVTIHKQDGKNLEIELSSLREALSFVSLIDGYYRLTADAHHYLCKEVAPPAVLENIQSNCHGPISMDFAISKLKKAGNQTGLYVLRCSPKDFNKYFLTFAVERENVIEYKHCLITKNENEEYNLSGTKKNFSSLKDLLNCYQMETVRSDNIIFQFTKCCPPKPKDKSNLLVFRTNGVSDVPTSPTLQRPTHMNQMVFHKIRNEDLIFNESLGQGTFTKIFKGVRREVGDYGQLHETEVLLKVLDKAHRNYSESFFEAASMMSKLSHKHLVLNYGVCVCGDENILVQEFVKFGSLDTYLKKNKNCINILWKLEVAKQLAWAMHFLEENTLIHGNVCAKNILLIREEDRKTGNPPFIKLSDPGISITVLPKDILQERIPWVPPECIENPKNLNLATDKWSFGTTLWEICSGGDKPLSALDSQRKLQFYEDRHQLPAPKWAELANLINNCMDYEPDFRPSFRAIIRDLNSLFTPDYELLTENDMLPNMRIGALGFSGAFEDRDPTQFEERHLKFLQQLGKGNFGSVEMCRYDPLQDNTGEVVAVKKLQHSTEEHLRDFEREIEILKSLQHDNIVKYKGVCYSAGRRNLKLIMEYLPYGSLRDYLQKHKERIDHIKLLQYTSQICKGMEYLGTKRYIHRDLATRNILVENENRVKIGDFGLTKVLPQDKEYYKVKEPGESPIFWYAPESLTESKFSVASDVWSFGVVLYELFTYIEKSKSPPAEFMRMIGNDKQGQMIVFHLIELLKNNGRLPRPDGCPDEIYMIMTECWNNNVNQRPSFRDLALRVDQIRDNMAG
Procedure: as §1, §2, §3, §4, §5, §6, §7

Sequence of Human JAK3 (P52333 whole entry): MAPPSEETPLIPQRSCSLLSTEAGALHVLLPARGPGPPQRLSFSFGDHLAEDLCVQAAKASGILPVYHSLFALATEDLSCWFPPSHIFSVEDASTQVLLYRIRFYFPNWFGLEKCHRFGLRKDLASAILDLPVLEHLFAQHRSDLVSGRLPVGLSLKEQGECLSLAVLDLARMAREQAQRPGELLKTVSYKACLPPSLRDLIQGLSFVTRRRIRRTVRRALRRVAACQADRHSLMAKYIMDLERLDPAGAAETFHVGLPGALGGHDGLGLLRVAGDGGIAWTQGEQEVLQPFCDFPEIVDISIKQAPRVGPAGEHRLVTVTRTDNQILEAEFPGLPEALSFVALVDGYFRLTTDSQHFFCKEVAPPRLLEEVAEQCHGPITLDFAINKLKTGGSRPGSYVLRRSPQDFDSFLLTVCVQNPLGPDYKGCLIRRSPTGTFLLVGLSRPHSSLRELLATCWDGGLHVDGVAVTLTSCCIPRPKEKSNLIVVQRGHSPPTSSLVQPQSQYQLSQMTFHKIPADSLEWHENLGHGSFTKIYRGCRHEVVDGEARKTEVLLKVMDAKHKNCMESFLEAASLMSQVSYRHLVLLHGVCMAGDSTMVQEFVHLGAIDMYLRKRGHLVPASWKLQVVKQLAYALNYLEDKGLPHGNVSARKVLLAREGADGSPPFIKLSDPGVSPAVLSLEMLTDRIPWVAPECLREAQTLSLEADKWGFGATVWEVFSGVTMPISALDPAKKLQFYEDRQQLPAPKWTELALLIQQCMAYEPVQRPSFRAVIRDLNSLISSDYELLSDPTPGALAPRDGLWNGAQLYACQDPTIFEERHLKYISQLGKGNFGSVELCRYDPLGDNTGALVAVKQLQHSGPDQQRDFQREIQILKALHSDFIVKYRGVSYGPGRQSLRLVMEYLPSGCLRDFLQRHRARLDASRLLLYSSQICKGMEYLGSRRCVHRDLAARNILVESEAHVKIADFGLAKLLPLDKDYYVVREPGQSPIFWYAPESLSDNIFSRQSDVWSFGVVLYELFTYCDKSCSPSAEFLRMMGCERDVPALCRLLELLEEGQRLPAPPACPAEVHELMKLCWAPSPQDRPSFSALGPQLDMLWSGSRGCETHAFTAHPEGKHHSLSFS

SMILES	inhibition at 1 µM (Human JAK3) [%]	inhibition at 1 µM (Human JAK1) [%]	inhibition at 1 µM (Human TYK2) [%]	inhibition at 1 µM (Human JAK2) [%]
CCCCN1C[C@H](N(C)c2ncnc3[nH]ccc23)C2(CC2)C1 [Example 1, (R)-N-(5-butyl-5-azaspiro[2.4]heptan-7-yl)-N-methyl-7H-pyrrolo[2,3-d]pyrimidin-4-amine]	8	79	-4	-14
CCCCCN1C[C@H](N(C)c2ncnc3[nH]ccc23)C2(CC2)C1 [Example 2, (R)-N-methyl-N-(5-pentyl-5-azaspiro[2.4]heptan-7-yl)-7H-pyrrolo[2,3-d]pyrimidin-4-amine]	7	77	3	-19
CC(C)C(=O)N1C[C@H](N(C)c2ncnc3[nH]ccc23)C2(CC2)C1 [Example 3, (R)-2-methyl-1-(7-(methyl(7H-pyrrolo[2,3-d]pyrimidin-4-yl)amino)-5-azaspiro[2.4]heptan-5-yl)propan-1-one]	16	83	49	25
CN(c1ncnc2[nH]ccc12)[C@H]1CN(C(=O)CN=[N+]=[N-])CC12CC2 [Example 4, (R)-2-azido-1-(7-(methyl(7H-pyrrolo[2,3-d]pyrimidin-4-yl)amino)-5-azaspiro[2.4]heptan-5-yl)ethan-1-one]	57	95	78	72
CC(C)CC(=O)N1C[C@H](N(C)c2ncnc3[nH]ccc23)C2(CC2)C1 [Example 6, (R)-3-methyl-1-(7-(methyl(7H-pyrrolo[2,3-d]pyrimidin-4-yl)amino)-5-azaspiro[2.4]heptan-5-yl)butan-1-one]	18	90	46	21
CC(=O)NCC(=O)N1C[C@H](N(C)c2ncnc3[nH]ccc23)C2(CC2)C1 [Example 7, (R)-N-(2-(7-(methyl(7H-pyrrolo[2,3-d]pyrimidin-4-yl)amino)-5-azaspiro[2.4]heptan-5-yl)-2-oxoethyl)acetamide]	8	70	8	-17
CNC(=O)CC(=O)N1C[C@H](N(C)c2ncnc3[nH]ccc23)C2(CC2)C1 [Example 8, (R)-N-methyl-3-(7-(methyl(7H-pyrrolo[2,3-d]pyrimidin-4-yl)amino)-5-azaspiro[2.4]heptan-5-yl)-3-oxopropanamide]	3	61	11	-7
CN(c1ncnc2[nH]ccc12)[C@H]1CN(C(=O)C2CC2)CC12CC2 [Example 9, (R)-cyclopropyl(7-(methyl(7H-pyrrolo[2,3-d]pyrimidin-4-yl)amino)-5-azaspiro[2.4]heptan-5-yl)methanone]	13	90	70	10
CC(=O)N1CCC(C(=O)N2C[C@H](N(C)c3ncnc4[nH]ccc34)C3(CC3)C2)CC1 [Example 10, (R)-1-(4-(7-(methyl(7H-pyrrolo[2,3-d]pyrimidin-4-yl)amino)-5-azaspiro[2.4]heptane-5-carbonyl)piperidin-1-yl)ethan-1-one]	23	88	52	2
CN(c1ncnc2[nH]ccc12)[C@H]1CN(C(=O)c2ccco2)CC12CC2 [Example 11, (R)-furan-2-yl(7-(methyl(7H-pyrrolo[2,3-d]pyrimidin-4-yl)amino)-5-azaspiro[2.4]heptan-5-yl)methanone]	15	93	61	10
CN(c1ncnc2[nH]ccc12)[C@H]1CN(C(=O)c2cccnc2)CC12CC2 [Example 12, (R)-(7-(methyl(7H-pyrrolo[2,3-d]pyrimidin-4-yl)amino)-5-azaspiro[2.4]heptan-5-yl)(pyridin-3-yl)methanone]	2	80	26	-11
CN(c1ncnc2[nH]ccc12)[C@H]1CN(C(=O)c2ccccc2)CC12CC2 [Example 13, (R)-(7-(methyl(7H-pyrrolo[2,3-d]pyrimidin-4-yl)amino)-5-azaspiro[2.4]heptan-5-yl)(phenyl)methanone]	13	81	30	-11
CN(c1ncnc2[nH]ccc12)[C@H]1CN(C(=O)c2ccncc2)CC12CC2 [Example 14, (R)-(7-(methyl(7H-pyrrolo[2,3-d]pyrimidin-4-yl)amino)-5-azaspiro[2.4]heptan-5-yl)(pyridin-4-yl)methanone]	12	84	15	-14
CN(c1ncnc2[nH]ccc12)[C@H]1CN(C(=O)c2cccc(C#N)c2)CC12CC2 [Example 15, (R)-3-(7-(methyl(7H-pyrrolo[2,3-d]pyrimidin-4-yl)amino)-5-azaspiro[2.4]heptane-5-carbonyl)benzonitrile]	13	76	43	-15
CN(c1ncnc2[nH]ccc12)[C@H]1CN(C(=O)c2ccc(C#N)cc2)CC12CC2 [Example 16, (R)-4-(7-(methyl(7H-pyrrolo[2,3-d]pyrimidin-4-yl)amino)-5-azaspiro[2.4]heptane-5-carbonyl)benzonitrile]	15	79	23	13
CN(c1ncnc2[nH]ccc12)[C@H]1CN(C(=O)c2ccccc2C(F)(F)F)CC12CC2 [Example 17, (R)-(7-(methyl(7H-pyrrolo[2,3-d]pyrimidin-4-yl)amino)-5-azaspiro[2.4]heptan-5-yl)(2-(trifluoromethyl)phenyl)methanone]	-1	65	39	-14
CN(c1ncnc2[nH]ccc12)[C@H]1CN(C(=O)c2cccc(C(F)(F)F)c2)CC12CC2 [Example 18, (R)-(7-(methyl(7H-pyrrolo[2,3-d]pyrimidin-4-yl)amino)-5-azaspiro[2.4]heptan-5-yl)(3-(trifluoromethyl)phenyl)methanone]	5	71	37	-17
CN(c1ncnc2[nH]ccc12)[C@H]1CN(C(=S)CC#N)CC12CC2 [Example 19, (R)-3-(7-(methyl(7H-pyrrolo[2,3-d]pyrimidin-4-yl)amino)-5-azaspiro[2.4]heptan-5-yl)-3-thioxopropanenitrile]	82	98	91	80
CC(C)COC(=O)N1C[C@H](N(C)c2ncnc3[nH]ccc23)C2(CC2)C1 [Example 20, isobutyl (R)-7-(methyl(7H-pyrrolo[2,3-d]pyrimidin-4-yl)amino)-5-azaspiro[2.4]heptane-5-carboxylate]	27	93	43	27
CCCCNC(=O)N1C[C@H](N(C)c2ncnc3[nH]ccc23)C2(CC2)C1 [Example 21, (R)-N-butyl-7-(methyl(7H-pyrrolo[2,3-d]pyrimidin-4-yl)amino)-5-azaspiro[2.4]heptane-5-carboxamide]	31	94	30	-3
CN(c1ncnc2[nH]ccc12)[C@H]1CN(C(=O)NC2CCCCC2)CC12CC2 [Example 22, (R)-N-cyclohexyl-7-(methyl(7H-pyrrolo[2,3-d]pyrimidin-4-yl)amino)-5-azaspiro[2.4]heptane-5-carboxamide]	16	90	15	-5
